Measurements taken from the supplement of paper PMC10307832.

Key:
kb NB 142-70 + Foretinib = compound: C1CSC2=C(C(=O)N1)SC3=C2C=C(C=C3)O [kb NB 142-70] + COc1cc2c(Oc3ccc(NC(=O)C4(C(=O)Nc5ccc(F)cc5)CC4)cc3F)ccnc2cc1OCCCN1CCOCC1 [Foretinib] (partner 0.25 µM); assay: relative viability (nuclei count vs DMSO), 5 days (fraction); higher = more cells survive
Procedure, shortened: (§1)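 Relative viability equals treated-well nuclei counts divided by vehicle-well nuclei counts. Counts came from 4× images of lung cancer cell lines grown in 1536-well plates for 5 days after pin-tool dosing on the day after seeding. Dosing used one drug alone or a fixed anchor-drug dose plus five library-drug doses (not always all listed) in √10 steps, and values are medians of duplicate plates.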

[1] = compound: NCC(=O)Nc1ccc(-n2nc(C(F)(F)F)cc2-c2ccc3c(ccc4ccccc43)c2)cc1 + Cc1cc(Nc2cc(N3CCN(C)CC3)nc(Sc3ccc(NC(=O)C4CC4)cc3)n2)n[nH]1 [Tozasertib] (partner 0.1 µM); assay: as above
Procedure, shortened: as §1

| Cell Line | relative viability (kb NB 142-70 + Foretinib; first compound 0.1 µM) | relative viability (kb NB 142-70 + Foretinib; first compound 1 µM) | relative viability (kb NB 142-70 + Foretinib; first compound 3.162 µM) | relative viability ([1]; first compound 0.02 µM) | relative viability ([1]; first compound 0.06325 µM) | relative viability ([1]; first compound 0.2 µM) | relative viability ([1]; first compound 0.6325 µM) | relative viability ([1]; first compound 2 µM) |
| --- | --- | --- | --- | --- | --- | --- | --- | --- |
| NCI-H2126 | 1.18 | 0.869 | 1.14 | 0.842 | 0.892 | 0.874 | 0.864 | 0.852 |
| EMC-BAC-2 | 0.994 | 1.01 | 0.581 | 0.29 | 0.314 | 0.325 | 0.308 | 0.302 |
| NCI-H1993 | 0.739 | 0.762 | 0.744 | 0.54 | 0.582 | 0.572 | 0.529 | 0.561 |
| NCI-H520 | 0.718 | 0.866 | 0.655 | 0.492 | 0.425 | 0.402 | 0.424 | 0.398 |
| NCI-H647 | 1.28 | 1.28 | 1.24 | 0.286 | 0.314 | 0.425 | 0.233 | 0.254 |
| SK-LU-1 | 0.782 | 0.732 | 0.346 | 0.324 | 0.335 | 0.386 | 0.346 | 0.339 |
| ChaGo-K-1 | 0.89 | 0.967 | 0.862 | 0.21 | 0.223 | 0.241 | 0.251 | 0.231 |
| NCI-H2342 | 0.96 | 1.03 | 0.978 | 0.652 | 0.676 | 0.45 | 0.448 | 0.492 |
| NCI-H1299 | 1.08 | 1.12 | 1.11 |  |  |  |  |  |
| NCI-H1650 | 1.44 | 1.23 | 1.18 | 0.389 | 0.438 |  | 0.453 | 0.347 |
| NCI-H2009 | 1.2 | 1.22 | 0.872 | 0.821 | 0.715 | 0.772 | 0.692 | 0.653 |
| LOU-NH91 | 0.898 | 0.889 | 0.829 | 0.621 | 0.716 | 0.649 | 0.663 | 0.797 |
| NCI-H2405 | 1.05 | 1.05 | 0.776 | 0.745 | 0.853 | 0.779 | 0.733 | 0.868 |
| SW 900 | 1.06 | 1.2 | 0.436 |  | 0.509 | 0.594 | 0.533 | 0.511 |
| LCLC-97TM1 | 1.01 | 0.883 | 0.606 | 0.228 | 0.26 | 0.234 | 0.206 | 0.206 |
| NCI-H596 | 0.887 | 0.866 | 0.89 | 1 | 0.911 | 1.02 | 0.925 | 0.903 |
| NCI-H727 | 1.06 | 0.969 | 1.15 | 0.648 | 0.664 | 0.588 | 0.502 | 0.711 |
| H3255 | 0.742 | 0.946 | 1.05 | 0.657 | 0.511 | 0.749 | 0.686 | 0.713 |
| SK-MES-1 | 0.875 | 0.939 | 0.985 | 0.939 | 1 | 0.914 | 0.866 | 0.856 |
| NCI-H1437 | 1.28 | 1.3 | 1.22 | 0.407 | 0.383 | 0.413 | 0.402 | 0.387 |

| Cell Line | relative viability (kb NB 142-70 + Foretinib; first compound 0.1 µM) | relative viability (kb NB 142-70 + Foretinib; first compound 1 µM) | relative viability (kb NB 142-70 + Foretinib; first compound 3.162 µM) | relative viability ([1]; first compound 0.02 µM) | relative viability ([1]; first compound 0.06325 µM) | relative viability ([1]; first compound 0.2 µM) | relative viability ([1]; first compound 0.6325 µM) | relative viability ([1]; first compound 2 µM) |
| --- | --- | --- | --- | --- | --- | --- | --- | --- |
| NCI-H1648 |  |  |  | 0.362 | 0.532 | 0.502 | 0.503 | 0.399 |
| LU99A | 0.781 | 0.765 | 0.569 | 0.241 | 0.273 | 0.259 | 0.271 | 0.265 |
| NCI-H522 |  |  |  |  | 0.589 | 0.537 | 0.505 | 0.516 |
| HCC-827 | 1.08 | 0.981 | 0.852 | 0.38 | 0.437 | 0.389 | 0.427 | 0.446 |
| LK-2 | 1.15 | 1.07 | 0.819 | 0.159 | 0.185 | 0.183 | 0.188 | 0.171 |
| HCC-366 | 0.93 | 0.858 | 0.895 | 0.42 | 0.18 | 0.118 | 0.15 | 0.0801 |
| BEN | 0.535 | 0.648 | 0.486 | 0.422 | 0.499 | 0.461 | 0.464 | 0.572 |
| NCI-H23 | 1.06 | 0.819 | 0.642 | 0.332 | 0.453 | 0.314 | 0.358 | 0.369 |
| NCI-H1395 | 0.942 | 1.04 | 0.946 | 0.724 | 0.75 | 0.778 | 0.794 | 0.706 |
| A549 | 0.997 | 0.95 | 0.563 |  |  |  |  |  |
| 201T | 1.07 | 1.17 | 1.08 | 0.943 | 0.958 | 1.04 | 0.924 | 0.928 |
| NCI-H2170 | 0.996 | 1.07 | 0.953 | 0.743 | 0.726 | 0.779 | 0.799 | 0.771 |
| NCI-H460 | 0.951 | 1.07 | 0.985 | 0.397 | 0.591 | 0.485 | 0.47 | 0.394 |
| NCI-H661 | 0.996 | 1.02 | 1.01 | 0.37 | 0.343 | 0.356 | 0.362 | 0.341 |
| HCC-15 | 1.01 | 1.13 | 0.946 | 0.379 | 0.416 | 0.39 | 0.489 | 0.347 |
| NCI-H1563 | 0.95 | 0.986 | 0.935 |  |  |  |  |  |
| ABC-1 | 1.11 | 0.979 | 0.677 | 0.183 | 0.199 |  | 0.134 | 0.187 |
| LCLC-103H | 0.715 | 0.744 | 0.815 | 0.416 | 0.477 | 0.457 | 0.471 | 0.448 |
| NCI-H441 | 0.939 | 1.15 | 0.459 | 0.642 | 0.522 | 0.747 | 0.603 | 0.697 |
| EPLC-272H | 0.696 | 0.725 | 0.255 | 0.299 | 0.225 | 0.365 | 0.313 | 0.234 |
